Earlier results on 1 substance are cited in patent US12606719B2, “Methods and compositions comprising biodegradable cyanoacrylates” (FEMASYS, INC., priority 2017, dated 2026).

For the data set the following is noted: versus cyanoacrylates that degrade by chain scission.

For the substance methoxypropyl cyanoacrylate, the hydrophilicity entry is recorded as “more hydrophilic”.
